Assay results: the supplement of paper PMC13380429

Tests used:
[1] = system: A549-ACE2 infected with SARS-CoV-2; assay: morphology score (similarity to uninfected cells); higher = more like uninfected cells; details: 24 h
Calu-3 [2] = assay: drug sensitivity score (DSS) for viability; higher = more toxic; extreme values may be limits of the assay; details: 72 h
U2OS [3] = assay: as above; details: 72 h
HepG2 [4] = assay: as above; details: 72 h
Vero E6 [5] = assay: as above; details: 72 h
Caco-2 [6] = assay: as above; details: 72 h
[7] = system: A549-ACE2 infected with SARS-CoV-2; assay: SARS-CoV-2 infection rate relative to DMSO; higher = more infection; details: 24 h
Calu-3 [8] = assay: cell viability relative to DMSO; higher = less toxic; details: 72 h
U2OS [9] = assay: as above; details: 72 h
HepG2 [10] = assay: as above; details: 72 h
Vero E6 [11] = assay: as above; details: 72 h
Caco-2 [12] = assay: as above; details: 72 h
A549-ACE2 = assay: drug-induced phospholipidosis relative to tamoxifen; higher = more phospholipidosis
U2OS [13] = assay: relative viability EC50 (midpoint between 100% and the lowest measured viability); higher = less toxic; details: 72 h
Vero E6 [14] = assay: as above; details: 72 h
[15] = system: A549-ACE2 infected with SARS-CoV-2; assay: cell count relative to DMSO; higher = less toxic; details: 24 h

`CC(C)n1cnc2c(NCCc3ccc(O)cc3)nc(-c3csc4ccccc34)nc21` [stemregenin-1] gave a morphology score ([1]; 0.3 µM) of 0.34, a morphology score ([1]; 3 µM) of 0.46 and a morphology score ([1]; 10 µM) of 0.84. For the same compound, the morphology score ([1]; 30 µM) was 0, the drug sensitivity score (Calu-3 [2]) was 5 and the drug sensitivity score (U2OS [3]) was 1. The drug sensitivity score (HepG2 [4]) was 2.3, the drug sensitivity score (Vero E6 [5]) was 0.2 and the drug sensitivity score (Caco-2 [6]) was 2.5. It also gave an SARS-CoV-2 infection rate ([7]; 0.3 µM) of 93%, an SARS-CoV-2 infection rate ([7]; 3 µM) of 84% and an SARS-CoV-2 infection rate ([7]; 10 µM) of 60%. The SARS-CoV-2 infection rate ([7]; 30 µM) was 26%, the cell viability (Calu-3 [8]; 1 nM) was 99.6% and the cell viability (Calu-3 [8]; 10 nM) was 109%. It also gave a cell viability (Calu-3 [8]; 100 nM) of 101%, a cell viability (Calu-3 [8]; 1000 nM) of 80.4% and a cell viability (Calu-3 [8]; 10000 nM) of 54.3%. The cell viability (U2OS [9]; 1 nM) was 103%, the cell viability (U2OS [9]; 10 nM) was 101% and the cell viability (U2OS [9]; 100 nM) was 95.1%. For the same compound, the cell viability (U2OS [9]; 1000 nM) was 96.3%, the cell viability (U2OS [9]; 10000 nM) was 80.7% and the cell viability (HepG2 [10]; 1 nM) was 92.7%. For the same compound, the cell viability (HepG2 [10]; 10 nM) was 91.9%, the cell viability (HepG2 [10]; 100 nM) was 97.4% and the cell viability (HepG2 [10]; 1000 nM) was 91.6%. For the same compound, the cell viability (HepG2 [10]; 10000 nM) was 70.7%, the cell viability (Vero E6 [11]; 1 nM) was 99.4% and the cell viability (Vero E6 [11]; 10 nM) was 101%. For the same compound, the cell viability (Vero E6 [11]; 100 nM) was 104%, the cell viability (Vero E6 [11]; 1000 nM) was 100% and the cell viability (Vero E6 [11]; 10000 nM) was 85.7%. It also gave a cell viability (Caco-2 [12]; 1 nM) of 92.3%, a cell viability (Caco-2 [12]; 10 nM) of 104% and a cell viability (Caco-2 [12]; 100 nM) of 87.3%. The cell viability (Caco-2 [12]; 1000 nM) was 99.3%, the cell viability (Caco-2 [12]; 10000 nM) was 54% and the drug-induced phospholipidosis (A549-ACE2; 0.3 µM, 24 h) was 6.01%. The drug-induced phospholipidosis (A549-ACE2; 0.3 µM, 48 h) was 9.44%, the drug-induced phospholipidosis (A549-ACE2; 0.3 µM, 72 h) was 7.3% and the drug-induced phospholipidosis (A549-ACE2; 0.833333 µM, 24 h) was 1.64%. The drug-induced phospholipidosis (A549-ACE2; 0.833333 µM, 48 h) was 5.9%, the drug-induced phospholipidosis (A549-ACE2; 0.833333 µM, 72 h) was 7.32% and the drug-induced phospholipidosis (A549-ACE2; 3.33333 µM, 24 h) was 8.25%. It also gave a drug-induced phospholipidosis (A549-ACE2; 3.33333 µM, 48 h) of 8.13%, a drug-induced phospholipidosis (A549-ACE2; 3.33333 µM, 72 h) of 13.4% and a drug-induced phospholipidosis (A549-ACE2; 6.66667 µM, 24 h) of 15.8%. The drug-induced phospholipidosis (A549-ACE2; 6.66667 µM, 48 h) was 14.7%, the drug-induced phospholipidosis (A549-ACE2; 6.66667 µM, 72 h) was 21.2% and the drug-induced phospholipidosis (A549-ACE2; 10 µM, 24 h) was 28.5%. For the same compound, the drug-induced phospholipidosis (A549-ACE2; 10 µM, 48 h) was 21.9%, the drug-induced phospholipidosis (A549-ACE2; 10 µM, 72 h) was 27% and the drug-induced phospholipidosis (A549-ACE2; 30 µM, 24 h) was 16.7%. The “relative viability EC50” value (U2OS [13]) was greater than 10 µM, the “relative viability EC50” value (Vero E6 [14]) was greater than 10 µM and the cell count ([15]; 0.3 µM) was 101%. The cell count ([15]; 3 µM) was 103%, the cell count ([15]; 10 µM) was 117% and the cell count ([15]; 30 µM) was 45%.
